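Tested at 5 concentrations; 48 h exposure; 96-well plates; endpoints linearly interpolated, else capped at highest concentration. GI50 is the concentration that inhibits growth by half.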 Active and inactive are the calls of the source. No stated cut-off is given here; in the data, active = GI50 up to about 1.1 µM and inactive = higher.
Tests used:
Assay in all cases: DTP human tumour cell line panel, 48 h
A549 = test system: A549
SK-MEL-28 = test system: SK-MEL-28
U-251 = test system: U-251
CCRF-CEM = test system: CCRF-CEM
MDA-N = test system: MDA-N
PC-3 = test system: PC-3
SF-295 = test system: SF-295
MDA-MB-231 = test system: MDA-MB-231
K562 = test system: K562
SW-620 = test system: SW-620
HT-29 = test system: HT-29
NCI/ADR-RES = test system: NCI/ADR-RES
DU-145 = test system: DU-145
HOP-92 = test system: HOP-92
SK-MEL-2 = test system: SK-MEL-2
UO-31 = test system: UO-31
NCI-H460 = test system: NCI-H460
HCT-15 = test system: HCT-15
LOX IMVI = test system: LOX IMVI
SNB-75 = test system: SNB-75
HL-60 = test system: HL-60
TK-10 = test system: TK-10
Malme-3M = test system: Malme-3M
ACHN = test system: ACHN
M14 = test system: M14
T47D = test system: T47D
SF-268 = test system: SF-268
MCF7 = test system: MCF7
UACC-257 = test system: UACC-257
NCI-H23 = test system: NCI-H23
COLO 205 = test system: COLO 205
HCT-116 = test system: HCT-116
MOLT-4 = test system: MOLT-4
SNB-19 = test system: SNB-19
786-0 = test system: 786-0
RXF 393 = test system: RXF 393
UACC-62 = test system: UACC-62
SN12C = test system: SN12C
MDA-MB-435 = test system: MDA-MB-435
KM12 = test system: KM12
OVCAR-5 = test system: OVCAR-5
SK-OV-3 = test system: SK-OV-3
OVCAR-3 = test system: OVCAR-3
BT-549 = test system: BT-549
OVCAR-4 = test system: OVCAR-4
EKVX = test system: EKVX
HCC 2998 = test system: HCC 2998
SF-539 = test system: SF-539
CAKI-1 = test system: CAKI-1
OVCAR-8 = test system: OVCAR-8
A498 = test system: A498
RPMI-8226 = test system: RPMI-8226
SK-MEL-5 = test system: SK-MEL-5
HOP-62 = test system: HOP-62
NCI-H226 = test system: NCI-H226
Hs-578T = test system: Hs-578T
IGROV-1 = test system: IGROV-1
NCI-H522 = test system: NCI-H522

Nc1ncnc2c1ncn2C(=O)NC12CC3CC(CC(C3)C1)C2
GI50 (A549): > 100 µM (inactive)
GI50 (SK-MEL-28): > 100 µM (inactive)
GI50 (U-251): > 100 µM (inactive)
GI50 (CCRF-CEM): 44 µM (inactive)
GI50 (MDA-N): > 100 µM (inactive)
GI50 (PC-3): > 100 µM (inactive)
GI50 (SF-295): > 100 µM (inactive)
GI50 (MDA-MB-231): > 100 µM (inactive)
GI50 (K562): > 100 µM (inactive)
GI50 (SW-620): > 100 µM (inactive)
GI50 (HT-29): > 100 µM (inactive)
GI50 (NCI/ADR-RES): > 100 µM (inactive)
GI50 (DU-145): > 100 µM (inactive)
GI50 (HOP-92): > 100 µM (inactive)
GI50 (SK-MEL-2): > 100 µM (inactive)
GI50 (UO-31): > 100 µM (inactive)
GI50 (NCI-H460): > 100 µM (inactive)
GI50 (HCT-15): > 100 µM
GI50 (LOX IMVI): > 100 µM (inactive)
GI50 (SNB-75): 84.7 µM (inactive)
GI50 (HL-60): > 100 µM (inactive)
GI50 (TK-10): > 100 µM (inactive)
GI50 (Malme-3M): > 100 µM (inactive)
GI50 (ACHN): > 100 µM (inactive)
GI50 (M14): > 100 µM (inactive)
GI50 (T47D): 4.97 µM (inactive)
GI50 (SF-268): > 100 µM (inactive)
GI50 (MCF7): > 100 µM (inactive)
GI50 (UACC-257): > 100 µM (inactive)
GI50 (NCI-H23): > 100 µM (inactive)
GI50 (COLO 205): > 100 µM (inactive)
GI50 (HCT-116): > 100 µM (inactive)
GI50 (MOLT-4): > 100 µM (inactive)
GI50 (SNB-19): > 100 µM (inactive)
GI50 (786-0): > 100 µM (inactive)
GI50 (RXF 393): > 100 µM (inactive)
GI50 (UACC-62): > 100 µM (inactive)
GI50 (SN12C): > 100 µM (inactive)
GI50 (MDA-MB-435): > 100 µM (inactive)
GI50 (KM12): > 100 µM (inactive)
GI50 (OVCAR-5): > 100 µM (inactive)
GI50 (SK-OV-3): > 100 µM (inactive)
GI50 (OVCAR-3): > 100 µM (inactive)
GI50 (BT-549): > 100 µM (inactive)
GI50 (OVCAR-4): > 100 µM (inactive)
GI50 (EKVX): > 100 µM (inactive)
GI50 (HCC 2998): > 100 µM (inactive)
GI50 (SF-539): > 100 µM (inactive)
GI50 (CAKI-1): > 100 µM (inactive)
GI50 (OVCAR-8): > 100 µM (inactive)
GI50 (A498): > 100 µM (inactive)
GI50 (RPMI-8226): > 100 µM (inactive)
GI50 (SK-MEL-5): > 100 µM (inactive)
GI50 (HOP-62): > 100 µM (inactive)
GI50 (NCI-H226): > 100 µM (inactive)
GI50 (Hs-578T): > 100 µM (inactive)

O=C(/C=C1\Nc2ccccc2N=C1NC12CC3CC(CC(C3)C1)C2)c1ccc(Br)cc1
GI50 (A549): > 10 µM (inactive)
GI50 (SK-MEL-28): > 10 µM (inactive)
GI50 (U-251): > 10 µM (inactive)
GI50 (CCRF-CEM): > 10 µM (inactive)
GI50 (MDA-N): > 10 µM (inactive)
GI50 (PC-3): > 10 µM (inactive)
GI50 (SF-295): > 10 µM (inactive)
GI50 (MDA-MB-231): > 10 µM (inactive)
GI50 (K562): > 10 µM (inactive)
GI50 (SW-620): > 10 µM (inactive)
GI50 (HT-29): > 10 µM (inactive)
GI50 (NCI/ADR-RES): > 10 µM (inactive)
GI50 (DU-145): > 10 µM (inactive)
GI50 (SK-MEL-2): > 10 µM (inactive)
GI50 (UO-31): > 10 µM (inactive)
GI50 (IGROV-1): > 10 µM (inactive)
GI50 (NCI-H460): > 10 µM (inactive)
GI50 (HCT-15): > 10 µM
GI50 (LOX IMVI): > 10 µM (inactive)
GI50 (SNB-75): > 10 µM (inactive)
GI50 (HL-60): > 10 µM (inactive)
GI50 (TK-10): > 10 µM (inactive)
GI50 (NCI-H522): > 10 µM (inactive)
GI50 (Malme-3M): > 10 µM (inactive)
GI50 (ACHN): > 10 µM (inactive)
GI50 (M14): > 10 µM (inactive)
GI50 (T47D): > 10 µM (inactive)
GI50 (SF-268): > 10 µM (inactive)
GI50 (MCF7): > 10 µM (inactive)
GI50 (UACC-257): > 10 µM (inactive)
GI50 (NCI-H23): > 10 µM (inactive)
GI50 (COLO 205): > 10 µM (inactive)
GI50 (HCT-116): > 10 µM (inactive)
GI50 (MOLT-4): > 10 µM (inactive)
GI50 (SNB-19): > 10 µM (inactive)
GI50 (786-0): > 10 µM (inactive)
GI50 (RXF 393): > 10 µM (inactive)
GI50 (UACC-62): > 10 µM (inactive)
GI50 (SN12C): > 10 µM (inactive)
GI50 (MDA-MB-435): > 10 µM (inactive)
GI50 (KM12): > 10 µM (inactive)
GI50 (OVCAR-5): > 10 µM (inactive)
GI50 (SK-OV-3): > 10 µM (inactive)
GI50 (OVCAR-3): > 10 µM (inactive)
GI50 (BT-549): > 10 µM (inactive)
GI50 (OVCAR-4): > 10 µM (inactive)
GI50 (EKVX): > 10 µM (inactive)
GI50 (HCC 2998): > 10 µM (inactive)
GI50 (SF-539): > 10 µM (inactive)
GI50 (CAKI-1): > 10 µM (inactive)
GI50 (OVCAR-8): > 10 µM (inactive)
GI50 (A498): > 10 µM (inactive)
GI50 (RPMI-8226): > 10 µM (inactive)
GI50 (SK-MEL-5): > 10 µM (inactive)
GI50 (HOP-62): > 10 µM (inactive)
GI50 (NCI-H226): > 10 µM (inactive)
GI50 (Hs-578T): > 10 µM (inactive)

COc1ccc(/C=N/Nc2nnc3c(n2)c2ccccc2c2nn(-c4ccccc4Cl)nc23)cc1
GI50 (A549): > 100 µM (inactive)
GI50 (SK-MEL-28): > 100 µM (inactive)
GI50 (U-251): > 100 µM (inactive)
GI50 (CCRF-CEM): > 100 µM (inactive)
GI50 (MDA-N): > 100 µM (inactive)
GI50 (PC-3): > 100 µM (inactive)
GI50 (SF-295): > 100 µM (inactive)
GI50 (MDA-MB-231): > 100 µM (inactive)
GI50 (K562): > 100 µM (inactive)
GI50 (SW-620): > 100 µM (inactive)
GI50 (HT-29): > 100 µM (inactive)
GI50 (NCI/ADR-RES): > 100 µM (inactive)
GI50 (DU-145): > 100 µM (inactive)
GI50 (HOP-92): > 100 µM (inactive)
GI50 (SK-MEL-2): > 100 µM (inactive)
GI50 (UO-31): > 100 µM (inactive)
GI50 (IGROV-1): > 100 µM (inactive)
GI50 (HCT-15): > 100 µM
GI50 (LOX IMVI): > 100 µM (inactive)
GI50 (SNB-75): > 100 µM (inactive)
GI50 (TK-10): > 100 µM (inactive)
GI50 (NCI-H522): > 100 µM (inactive)
GI50 (Malme-3M): > 100 µM (inactive)
GI50 (ACHN): > 100 µM (inactive)
GI50 (M14): > 100 µM (inactive)
GI50 (T47D): > 100 µM (inactive)
GI50 (SF-268): > 100 µM (inactive)
GI50 (UACC-257): > 100 µM (inactive)
GI50 (NCI-H23): > 100 µM (inactive)
GI50 (COLO 205): > 100 µM (inactive)
GI50 (HCT-116): > 100 µM (inactive)
GI50 (MOLT-4): > 100 µM (inactive)
GI50 (SNB-19): > 100 µM (inactive)
GI50 (786-0): > 100 µM (inactive)
GI50 (RXF 393): > 100 µM (inactive)
GI50 (UACC-62): > 100 µM (inactive)
GI50 (SN12C): > 100 µM (inactive)
GI50 (MDA-MB-435): > 100 µM (inactive)
GI50 (KM12): > 100 µM (inactive)
GI50 (OVCAR-5): > 100 µM (inactive)
GI50 (SK-OV-3): > 100 µM (inactive)
GI50 (OVCAR-3): > 100 µM (inactive)
GI50 (BT-549): > 100 µM (inactive)
GI50 (OVCAR-4): > 100 µM (inactive)
GI50 (EKVX): > 100 µM (inactive)
GI50 (CAKI-1): > 100 µM (inactive)
GI50 (OVCAR-8): > 100 µM (inactive)
GI50 (A498): > 100 µM (inactive)
GI50 (RPMI-8226): > 100 µM (inactive)
GI50 (SK-MEL-5): > 100 µM (inactive)
GI50 (HOP-62): > 100 µM (inactive)
GI50 (NCI-H226): > 100 µM (inactive)
GI50 (Hs-578T): 71.6 µM (inactive)

Source: ChEMBL document CHEMBL1201862, “PubChem BioAssay data set” (2004)
